One compound from US8247444B2, “Anti-tumor effect of dimeric phthalide compound” (priority 2007, dated 2012) can be followed below.

One assay has as its system Bel-7402/5-Fu. The assay can be described thus: Growth inhibition of sensitive and drug-resistant cell lines (IC50), Bel-7402/5-Fu. The note with it: Homo sapiens, Bel7402/5-FU; Bel-7402/5-Fu drug-resistant cells. Type of assay: cell-based. An excerpt: (§1) HL-60/ADR, MCF-7/ADR, K562/ADR, Bel-7402/5-FU, KBV200, SMMC-7721/Adr were respectively chemotherapeutics Adriamycin (ADR), 5-Fluorouracil (5-FU) or vincristine (VCR) drug-resistant sub-stains of HL-60, MCF-7, K562, Bel-7402, KB, SMMC-7721 cells (all from Chinese Academy of Medical Sciences). NB4-R2 was all trans-retinoic acid (ATRA) drug-resistant sub-stain (from Pathophysiology Research Department of Shanghai JiaoTong University). The main drug-resistance mechanism of K562/ADR was high expression of P-glycoprotein (P-gp), along with increased expression of Bcl-2. In addition to high expression of P-gp, the drug-resistance mechanism of MCF-7/ADR also related to the high expression of Breast Cancer Resistant Protein (BCRP). The main drug-resistance mechanism of HL-60/ADR was high expression of Multidrug Resistance Protein 1 (MRP1), along with high expression of Bcl-2, Bcl-xL. […] The main drug-resistance mechanism of KBV200 was high expression of P-gp and its increased activity. The drug-resistance mechanism of NB4-R2 on ATRA was mutation in the RAR gene locus.
(§2) The human lung cancer cell H1299 and H446, glioma cell U251 and U87MG, and human hepatic cellular cancer Bel-7402 cell in logarithmic growth phase were digested with pancreatic enzyme, and then suspended into DMEM or RPMI1640 containing 10% fetal bovine serum. The leukemic cells Kasumi-1 need no digestion, and were suspended into RPMI1640 containing 10% fetal bovine serum directly after centrifugalization. The cell density was adjusted to 1×10^4 cells/ml through cell counting, and the cell suspensions were seeded into a 96-well plate respectively, 100 μl/well, totally 6 groups of cells. The adherent cells were cultured overnight, the suspended cells were added different concentration gradients of dimeric phthalide compounds (S1-S6) directly, n=6 for each concentration of a single agent. The final volume was 200 ul, and the balance was supplemented with the culture medium. The plate was then incubated for 68 hours in 37° C., saturated humidity, 5% CO2 cell incubator. The medium was aspirated and 72 μl/well fresh culture medium was added. 8 μl […] (CCK-8) was added into each well and cultured for 2 hours. The absorbance was measured at 450 nm. The results were calculated as the 50% inhibiting drug concentration, i.e. IC50, using Sigmoidal simulation function by software Origin 7.0.
(§3) The cancer cells (various cell lines as shown in table 1 or FIG. 3) were seeded 1×10^3 cells per well into a 96-well plate. The suspended cells were added different concentration of dimeric phthalide compounds (S1-S6) directly, and the adherent cells were cultured overnight and added different concentration of dimeric phthalide compounds (S1-S6). The different concentration of dimeric phthalide compounds were divided into 10 groups: 0, 0.1, 0.5, 1, 5, 10, 20, 40, 80, 160 μg/ml, n=6 for each concentration.
(§4) According to the method described in Example 2, […] was detected and IC50 was calculated. The experiment was repeated for 3 times.
(§5) The growth inhibition effects of dimers of S1-S6 on its sensitive cell lines as well as the drug-resistant sub-strains (IC50 (μg/ml)) were shown in table 1 and FIG. 3.

Another assay concerns MCF-7/Adr. The assay can be described thus: Growth inhibition of sensitive and drug-resistant cell lines (IC50), MCF-7/Adr. The note with it: Homo sapiens, NCI/ADR-RES; MCF-7/Adr drug-resistant cells. Type of assay: cell-based.
Source text: as §1, §2, §3, §4, §5

Assay [1] relates to drug-resistant cells of different mechanisms and sensitive cells. The assay is described as follows: Overcome drug resistance: efficacy on drug-resistant cells compared with sensitive cells. Type of assay: cell-based, human. The note with it: table 1 and FIG. 3. The method, then:
as §3, §4

Another assay relates to MCF-7. The assay can be described thus: Growth inhibition of sensitive and drug-resistant cell lines (IC50), MCF-7. It is filed as cell-based. The note with it: Homo sapiens, MCF7; MCF-7 cells. As for the experimental part: (§6) In the following Examples, the cell lines used were H1299, H446 (human lung cancer cell line), KB (human oral cavity carcinoma cell line), NB4, HL-60 (human leukemic cell line), U251 ? U87MG (human glioblastoma cell line), MCF-7 (human breast carcinoma cell line), Bel-7402 and SMMC7721 (human hepatic cellular cancer cell line), SW620 (human colon carcinoma cell line), HDF (human dermis fibroblast), HUVEC (human umbilical vein endothelial cell line) and Kasumi-1 (human acute myeloid leukaemia cell line), all from American Type Culture Collection (ATCC).
as §2, §3, §4, §5

Another assay relates to HDF. The assay can be described thus: Vascular endothelial cell inhibition assay (CCK-8), HDF. Type of assay: cell-based. The note with it: Homo sapiens, 72 h. As for the experimental part:
(§7) 2×10^3 cells were seeded into a 96-well plate and cultured for 24 h. S1-S6 of different concentrations (0, 0.01, 0.1, 0.5, 1, 2.5, 5, 10, 20, 40, 80, 160 μg/ml, respectively) were added and incubated for 72 h, n=6 for each concentration. The inhibition of cell proliferation was detected by CCK-8 assay, the results were calculated as IC50, as describe in Example 3.

In assay [2] the test system is H1299, H446, U251, U87MG, Bel-7402 and Kasumi-1 cells. The assay is described as follows: Inhibition effects on proliferation (CCK-8), various human cancer cells. It is filed as cell-based. The note with it: FIG. 2, 68 h. As for the experimental part: as §2
A further assay has as its system HL-60, H1299, U251 cells. The assay is described as follows: Inducing cell death (Rh123/PI flow cytometry). Type of assay: cell-based, human. The note with it: 48 h, FIG. 5. The method, then:
S1-S6 of different concentrations (as shown in FIG. 5) were added into HL-60, H1299, U251 cells under good growing conditions. The cells were cultured for 48 h, and collected. The cells were incubated with rhodamine 123 (Rh123) of the final concentration of 10 μg/ml for 20 min at 37° C., and then washed with pre-cooled PBS twice. The cells were suspended into PBS, and PI of final concentration of 25 μg/ml was added. After incubated in the dark at room temperature for 15 min, mitochondria membrane potential and PI positive cells were detected by flow cytometry, the death rate was calculated as the rate of PI positive cells.
On the technique in general: Flow cytometry measures light scatter and fluorescence of single cells or particles in a stream.

For a further assay, the system named is KBv200. The assay can be described thus: Growth inhibition of sensitive and drug-resistant cell lines (IC50), KBv200. It is filed as cell-based. The note with it: Homo sapiens; KBv200 drug-resistant cells.
Source text: as §1, §2, §3, §4, §5

The next assay has as its system Bel-7402. The assay can be described thus: Growth inhibition of sensitive and drug-resistant cell lines (IC50), Bel-7402. It is filed as cell-based. The note with it: Homo sapiens; Bel-7402 cells, Table 1. As for the experimental part:
as §6, §2, §3, §4, §5

A further assay relates to K562/Adr. The assay is described as follows: Growth inhibition of sensitive and drug-resistant cell lines (IC50), K562/Adr. Type of assay: cell-based. The note with it: Homo sapiens; K562/Adr drug-resistant cells.
Source text: as §1, §2, §3, §4, §5

Another assay concerns HUVEC. The assay can be described thus: Vascular endothelial cell inhibition assay (CCK-8), HUVEC. Type of assay: cell-based. The note with it: Homo sapiens, 72 h. As for the experimental part: as §7

Broadly, the IC50 is the concentration needed to halve the response being measured. Low values mean inhibition by little substance, high ones a need for much substance.

Values after ≈ are worked out from the molar mass of the structure shown.

Turning to `CCC/C=C1\OC(=O)C2=C1CCC1C2[C@@]23CC[C@@H]1C=C2C(=O)O/C3=C\CCC` (some centres unmarked) [S4], the IC50 with Bel-7402/5-Fu was 17.6 ± 3.68 µg/mL (≈ 46.1 µM); in the assay on MCF-7/Adr, 20.3 ± 2.12 µg/mL (≈ 53.4 µM); in the assay on MCF-7, 18.4 ± 2.8 µg/mL (≈ 48.5 µM); with HDF, 82.2 µg/mL (≈ 216 µM); in the assay with KBv200 it was 17.4 ± 2.03 µg/mL (≈ 45.9 µM); in the assay on Bel-7402, 16.4 ± 1.94 µg/mL (≈ 43.2 µM). For the same compound, the IC50 in the assay with K562/Adr is 12.4 ± 1.01 µg/mL (≈ 32.5 µM); with HUVEC, 4.14 µg/mL (≈ 10.9 µM). In [1], the “efficacy on drug-resistant cells compared with sensitive cells” value is recorded as “the best effect”. Further, the “inhibition effect on proliferation of various human cancer cells” value in [2] was “best inhibition effects on most of the cancer cells”. In addition, the “inducing decrease of cell mitochondria membrane potential and cell death” value in the assay on HL-60, H1299, U251 cells was “best effect of inducing cell death”.
